Assay results published in paper PMC6651613, “Identification and Characterization of trans-Isopentenyl Diphosphate Synthases Involved in Herbivory-Induced Volatile Terpene Formation in Populus trichocarpa” (Molecules, 2019).

Experiments:
Assay in all cases: LC-MS/MS product analysis
Format in all cases: biochemical
Conditions in all cases: 50 uM IPP and 50 uM DMAPP, 10 mM MgCl2, 0.1 mM MnCl2, pH 7.2, 30 °C, 1 h
PtFPPS1 = target: T1, PtFPPS1 (Populus trichocarpa, UniProt A0A514TNK7)
T1 construct: full-length ORF, N-terminal His tag (pASK-IBA37+), E. coli TOP10, Ni-NTA purified; cloning primer encodes MADLKSTF
T1 sequence (A0A514TNK7 1-342): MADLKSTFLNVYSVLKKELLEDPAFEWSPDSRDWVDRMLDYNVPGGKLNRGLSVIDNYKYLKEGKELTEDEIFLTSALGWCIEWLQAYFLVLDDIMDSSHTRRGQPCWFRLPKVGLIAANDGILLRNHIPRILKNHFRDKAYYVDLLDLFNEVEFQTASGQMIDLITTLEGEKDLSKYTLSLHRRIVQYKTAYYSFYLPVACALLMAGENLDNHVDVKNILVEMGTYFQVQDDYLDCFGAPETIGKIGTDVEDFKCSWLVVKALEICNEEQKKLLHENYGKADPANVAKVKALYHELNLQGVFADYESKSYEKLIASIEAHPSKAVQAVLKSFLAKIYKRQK

PtGPPS1.LSU = target: T2, PtGPPS1.LSU (Populus trichocarpa, UniProt A0A514TNQ6)
T2 construct: N-terminally truncated ORF (delta71, signal peptide removed), C-terminal His tag (pASK-IBA33+), E. coli TOP10, Ni-NTA purified; cloning primer encodes MPTFDFKSY

PtGPPS2.LSU = target: T3, PtGPPS2.LSU (Populus trichocarpa, UniProt A0A514TNS4)
T3 construct: N-terminally truncated ORF (delta72, signal peptide removed), C-terminal His tag (pASK-IBA33+), E. coli TOP10, Ni-NTA purified; cloning primer encodes MPTFDFKSY

[1] = target: T4, PtGPPS1.LSU + PtGPPS.SSU1 (Populus trichocarpa, UniProt A0A514TNQ6)
T4 construct: equal amounts of separately purified LSU (delta71) and SSU1 (delta41) mixed; C-terminal His tags, E. coli TOP10; heterodimer proposed, not isolated; with Geranyl diphosphate synthase small subunit 1

[2] = target: T5, PtGPPS2.LSU + PtGPPS.SSU1 (Populus trichocarpa, UniProt A0A514TNS4)
T5 construct: separately purified LSU (delta72) and SSU1 (delta41) mixed; C-terminal His tags, E. coli TOP10; heterodimer proposed, not isolated; with Geranyl diphosphate synthase small subunit 1
T5 sequence (A0A514TNS4 71-366): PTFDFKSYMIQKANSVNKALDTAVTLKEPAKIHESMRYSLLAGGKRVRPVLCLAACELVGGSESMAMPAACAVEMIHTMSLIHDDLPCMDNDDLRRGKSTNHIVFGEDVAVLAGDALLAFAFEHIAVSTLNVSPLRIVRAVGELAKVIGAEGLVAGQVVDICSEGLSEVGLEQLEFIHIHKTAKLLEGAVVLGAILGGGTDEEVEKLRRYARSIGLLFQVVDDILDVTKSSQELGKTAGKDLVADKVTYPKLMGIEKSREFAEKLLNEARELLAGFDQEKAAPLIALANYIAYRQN
T5 sequence (A0A514TNK9 42-312 partner): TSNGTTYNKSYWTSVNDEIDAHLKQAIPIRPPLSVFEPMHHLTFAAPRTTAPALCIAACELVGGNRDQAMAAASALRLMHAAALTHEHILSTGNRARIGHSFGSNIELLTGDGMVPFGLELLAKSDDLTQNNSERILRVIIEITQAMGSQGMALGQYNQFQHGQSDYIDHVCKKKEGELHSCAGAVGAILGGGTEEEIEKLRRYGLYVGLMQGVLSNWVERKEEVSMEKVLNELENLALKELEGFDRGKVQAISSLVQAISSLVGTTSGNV

T3 sequence (A0A514TNS4 71-366): as the sequence (A0A514TNS4 71-366) above
T4 sequence (A0A514TNQ6 70-365): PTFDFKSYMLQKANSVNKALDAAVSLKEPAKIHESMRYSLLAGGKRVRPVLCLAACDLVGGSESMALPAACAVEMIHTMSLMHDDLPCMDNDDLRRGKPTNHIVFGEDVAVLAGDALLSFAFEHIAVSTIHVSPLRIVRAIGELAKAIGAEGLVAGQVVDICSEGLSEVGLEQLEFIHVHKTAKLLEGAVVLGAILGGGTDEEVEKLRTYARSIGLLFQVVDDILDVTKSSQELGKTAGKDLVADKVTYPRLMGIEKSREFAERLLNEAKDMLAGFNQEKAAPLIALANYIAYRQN
T4 sequence (A0A514TNK9 42-312 partner): as the sequence (A0A514TNK9 42-312 partner) above
T2 sequence (A0A514TNQ6 70-365): as the sequence (A0A514TNQ6 70-365) above

SMILES | LC-MS/MS product analysis (PtFPPS1) | LC-MS/MS product analysis (PtGPPS1.LSU) | LC-MS/MS product analysis (PtGPPS2.LSU) | LC-MS/MS product analysis [1] | LC-MS/MS product analysis [2]
C=C(C)CCOP(=O)(O)OP(=O)(O)O [IPP] | PtFPPS1 catalyzes the condensation of IPP and DMAPP to FPP and traces of GGPP | produced GPP and GGPP when tested with IPP and DMAPP as substrates | produced GPP and GGPP when tested with IPP and DMAPP as substrates | incubated with IPP and DMAPP either in the presence (black bars) or absence | incubated with IPP and DMAPP either in the presence (black bars) or absence
CC(C)=CCOP(=O)(O)OP(=O)(O)O [DMAPP] | PtFPPS1 catalyzes the condensation of IPP and DMAPP to FPP and traces of GGPP | produced GPP and GGPP when tested with IPP and DMAPP as substrates | produced GPP and GGPP when tested with IPP and DMAPP as substrates | incubated with IPP and DMAPP either in the presence (black bars) or absence | incubated with IPP and DMAPP either in the presence (black bars) or absence
